Laboratory results taken from US20080051384A1, “ANTIVIRAL AGENTS” (Genelabs Technologies, Inc., priority 2006, published 2008).

test: Replicon Assay (luciferase, ET cell line); assay type: cell-based, HCV; settings: Hepatitis C virus; tested at 6.25 μM; inhibition of replication (luciferase activity) relative to no compound control
Protocol: A cell line, ET (Huh-lucubineo-ET) was used for screening of compounds for inhibiting HCV RNA dependent RNA polymerase. The ET cell line was stably transfected with RNA transcripts harboring a I389luc-ubi-neo/NS3-3′/ET; replicon with firefly luciferase-ubiquitin-neomycin phosphotransferase fusion protein and EMCV-IRES driven NS3-5B polyprotein containing the cell culture adaptive mutations (E1202G; T12801; K1846T) (Krieger at al, 2001 and unpublished). The ET cells were grown in DMEM, supplemented with 10% fetal calf serum, 2 mM Glutamine, Penicillin (100 IU/mL)/Streptomycin (100 μg/mL), 1× nonessential amino acids, and 250 μg/mL G418 (“Geneticin”). They are all available through Life Technologies (Bethesda, Md.). The cells were plated at 0.5-1.0×10^4 cells/well in the 96 well plates and incubated for 24 hrs before adding test compound. The compounds were added to the cells to achieve a final concentration of 0.1 nM to 50 μm and a final DMSO concentration of 0.5%. Luciferase activity was measured 48-72 hours later by adding a lysis buffer and the substrate (Catalog number Glo-lysis buffer E2661 and Bright-Glo luciferase system E2620 Promega, Madison, Wis.). Cells should not be too confluent during the assay. Percent inhibition of replication data was plotted relative to no compound control. Under the same condition, cytotoxicity of the compounds were determined using cell proliferation reagent, WST-1 (Roche, Germany). The compounds showing antiviral activities, but no significant cytotoxicities were chosen to determine EC50 and TC50, the effective concentration and toxic concentration at which 50% of the maximum inhibition is observed. For these determinations, a 10 point, 2-fold serial dilution for each compound was used, which spans a concentration range of 1000 fold. EC50 and similarly the TC50 values were calculated by fitting % inhibition at each concentration to the following equation: % inhibition=100%/[(EC50/[I])^b+1] where b is Hill's coefficient.

Structure (SMILES) | inhibition at 6.25 µM
Cc1nc(C)c(-c2ccc3cc(-c4c(C5CCCCC5)c5sc(C(=O)O)cc5n4CC(=O)N4CCCCC4)ccc3n2)s1 [compound 191, 6-cyclohexyl-5-[2-(2,4-dimethyl-thiazol-5-yl)-quinolin-6-yl]-4-(2-oxo-2-piperidin-1-yl-ethyl)-4H-thieno[3,2-b]pyrrole-2-carboxylic acid] | 97%
Cc1nc(C)c(-c2ccc3cc(-c4c(C5CCCCC5)c5sc(C(=O)O)cc5n4CC(=O)N4CCOCC4)ccc3n2)s1 [compound 189, 6-cyclohexyl-5-[2-(2,4-dimethyl-thiazol-5-yl)-quinolin-6-yl]-4-(2-morpholin-4-yl-2-oxo-ethyl)-4H-thieno[3,2-b]pyrrole-2-carboxylic acid] | 100%
O=C(O)c1cc2c(s1)c(C1CCCCC1)c(-c1ccc3nc(-c4ccccc4F)ccc3c1)n2CC(=O)N1CCOCC1 [compound 188, 6-Cyclohexyl-5-[2-(2-fluoro-phenyl)-quinolin-6-yl]-4-(2-morpholin-4-yl-2-oxo-ethyl)-4H-thieno[3,2-b]pyrrole-2-carboxylic acid] | 99%
Cc1nc(C)c(-c2ccc3cc(-c4c(C5CCCCC5)c5sc(C(=O)O)cc5n4CC(=O)N4CCSCC4)ccc3n2)s1 [compound 190, 6-Cyclohexyl-5-[2-(2,4-dimethyl-thiazol-5-yl)-quinolin-6-yl]-4-(2-oxo-2-thiomorpholin-4-yl-ethyl)-4H-thieno[3,2-b]pyrrole-2-carboxylic acid] | 98%
O=C(O)c1cc2c(s1)c(C1=CCCCC1)c(-c1ccc3nc(-c4ccccc4F)ccc3c1)n2CC(=O)N1CCOCC1 [compound 186, 6-Cyclohex-1-enyl-5-[2-(2-fluoro-phenyl)-quinolin-6-yl]-4-(2-morpholin-4-yl-2-oxo-ethyl)-4H-thieno[3,2-b]pyrrole-2-carboxylic acid] | 75%
Cc1nc(C)c(-c2ccc3cc(-c4c(C5=CCCCC5)c5sc(C(=O)O)cc5n4CC(=O)N4CCOCC4)ccc3n2)s1 [compound 187, 6-Cyclohex-1-enyl-5-[2-(2,4-dimethyl-thiazol-5-yl)-quinolin-6-yl]-4-(2-morpholin-4-yl-2-oxo-ethyl)-4H-thieno[3,2-b]pyrrole-2-carboxylic acid] | 63%
